Measurements as given in ChEMBL document CHEMBL6121015, “Correction of aberrant splicing of ELP1 pre-mRNA by kinetin derivatives - A structure activity relationship study” (Eur J Med Chem, 2025).
Active and inactive are the calls of the source. No cut-off for these calls is given here.

Experiments:
GM04663 [1] = assay: Corrector activity at aberrant splicing of ELP1 gene […] mutant (unknown origin) in human GM04663 cells assessed as increase in exon 20 inclusion at 10 uM by Capillary electrophoresis; assay type: cell-based
BJ = assay: Cytotoxicity against human BJ cell assessed as decrease in resazurin signal incubated with resazurin for 3 hrs by M2 reader analysis; assay type: toxicity, cell-based; set-up: scale not given: the % may be the effect or the level left
[2] = Cytotoxicity against human GM04663 cell assessed as decrease in resazurin signal incubated with resazurin for 48 hrs by M2 reader analysis; assay type: functional; set-up: scale not given: the % may be the effect or the level left
ARPE-19 = assay: Cytotoxicity against human ARPE-19 cell assessed as decrease in resazurin signal incubated with resazurin for 1 hrs by M2 reader analysis; assay type: toxicity, cell-based; set-up: scale not given: the % may be the effect or the level left; settings: arpe-19, 1 h
HaCaT = assay: Cytotoxicity against human HaCaT cell assessed as decrease in resazurin signal incubated with resazurin for 3 hrs by M2 reader analysis; assay type: toxicity, cell-based; set-up: scale not given: the % may be the effect or the level left
GM04663 [3] = assay: Corrector activity at aberrant splicing of ELP1 gene […] mutant (unknown origin) in human GM04663 cells assessed as increase in exon 20 inclusion at 50 uM by Capillary electrophoresis; assay type: cell-based

Compound: c1coc(CNc2ncnc3[nH]cnc23)c1
- Activity (GM04663 [1]): Active

Compound: Cn1cnc2ncnc(NCc3ccco3)c21
- Activity (GM04663 [1]): Active

Compound: CN(C)CCOc1nc2c(NCc3ccco3)ncnc2[nH]1
- Activity (GM04663 [1]): Active

Compound: Clc1nc(NCc2ccco2)c2[nH]cnc2n1
- Activity (BJ): > 20%
- Activity [2]: >20%
- Activity (GM04663 [1]): Active
- Activity (ARPE-19): < 20%
- Activity (HaCaT): > 20%

Compound: Clc1cc(NCc2ccco2)ncn1
- Activity (GM04663 [3]): Active

Compound: Ic1nc2c(NCc3ccco3)ncnc2[nH]1
- Activity (GM04663 [1]): inactive

Compound: c1ccc(Nc2nc3c(NCc4ccco4)ncnc3[nH]2)cc1
- Activity (BJ): > 20%
- Activity [2]: >20%
- Activity (GM04663 [1]): Active
- Activity (ARPE-19): < 20%
- Activity (HaCaT): > 20%

Compound: Cn1cnc2nc(Cl)nc(NCc3ccco3)c21
- Activity (GM04663 [1]): Active

Compound: O=c1[nH]c2ncnc(NCc3ccco3)c2[nH]1
- Activity (GM04663 [1]): Active

Compound: c1csc(CNc2[nH]cnc3ncnc2-3)c1
- Activity (GM04663 [1]): inactive

Compound: Clc1nc(NCc2ccco2)c2nc(Cl)[nH]c2n1
- Activity (GM04663 [1]): Active

Compound: NCCNc1nc2c(NCc3ccco3)ncnc2[nH]1
- Activity (GM04663 [1]): Active

Compound: Nc1nc2c(NCc3ccco3)ncnc2[nH]1
- Activity (GM04663 [1]): Active

Compound: CN(C)CCNc1nc2c(NCc3ccco3)ncnc2[nH]1
- Activity (GM04663 [1]): Active

Compound: c1ccc(CNc2nc3c(NCc4ccco4)ncnc3[nH]2)cc1
- Activity (BJ): > 20%
- Activity [2]: >20%
- Activity (GM04663 [1]): Active
- Activity (ARPE-19): < 20%
- Activity (HaCaT): > 20%

Compound: c1coc(CNc2ncnc3[nH]c(NCCCN4CCOCC4)nc23)c1
- Activity (GM04663 [1]): Active

Compound: Nc1nc2c(NCc3ccco3)nc(Cl)nc2[nH]1
- Activity (GM04663 [1]): inactive

Compound: Fc1nc(NCc2ccco2)c2nc[nH]c2n1
- Activity (BJ): > 20%
- Activity [2]: >20%
- Activity (GM04663 [1]): Active
- Activity (ARPE-19): < 20%
- Activity (HaCaT): > 20%

Compound: COc1nc2c(NCc3ccco3)ncnc2[nH]1
- Activity (GM04663 [1]): Active

Compound: Nc1c(Cl)ncnc1NCc1ccco1
- Activity (GM04663 [3]): Active

Compound: CN(Cc1ccco1)c1cc(Cl)nc(N)n1
- Activity (GM04663 [3]): Active

Compound: Nc1nc(Cl)cc(NCc2ccco2)n1
- Activity (GM04663 [3]): Active

Compound: CSc1nc2c(NCc3ccco3)ncnc2[nH]1
- Activity (GM04663 [1]): Active

Compound: CCCOc1nc2c(NCc3ccco3)ncnc2[nH]1
- Activity (GM04663 [1]): Active

Compound: C=CCNc1nc2c(NCc3ccco3)ncnc2[nH]1
- Activity (GM04663 [1]): Active

Compound: CCCn1cnc2ncnc(NCc3ccco3)c21
- Activity (GM04663 [1]): inactive
